From publication PMC8280143, “A novel dephosphorylation targeting chimera selectively promoting tau removal in tauopathies” (Signal Transduction and Targeted Therapy, 2021) come the findings set out here.

“Also recorded” adds a separate entry of the source.

In data set [1] the test system is HEK293(hTau) cells. In words: CCK8 cell viability assay. The format is cell-based, human. Particulars: to 200 μM, 24 h; normalized to 0-μM group; F(4, 25) = 1.47, P = 0.24. The procedure: (§1) HEK293 cells with stable expression of wild-type full-length human tau (term as HEK293(hTau) cells), were cultured in DMEM (Hyclone, SH30022.01) containing 10% fetal bovine serum (Biological Industries, 04–001-1ACS) and […] G418 (Thermo Fisher Scientific, 10,131,027) under 5% CO2, 37 °C.
HEK293(hTau) cells were administrated with increasing concentration of DEPTAC for 24 h. About 5000 cells were dispensed into each well of a 96-well plate pre-incubated in a humidified incubator under 37 °C, 5% CO2. A total volume of 10 μL CCK-8 solution was delivered into each well of the plate. The plate was incubated for 1–4 h, and the light absorbance was measured at 450 nm using a microplate reader (BioTek-Synergy2). Cell viability (V) was evaluated by the formula: V = (Ad – A0) / (Av – A0) × 100%, where Ad and Av was the absorbance of DEPTAC-treated and vehicle-treated cells, respectively. A0 was the absorbance of wells with only culture medium and CCK8.
In general terms: Tetrazolium dyes change colour on reduction, which living cells bring about.

Data set [2] relates to human tau in HEK293(hTau) cells. In words: Tau dephosphorylation and reduction in hTau-expressed HEK293 cells. The class given is cell-based. Particulars: Supplementary Fig. S4; by contrast to neurons. The procedure:
as §1
(§2) Cultured cells or hippocampus tissues were collected on ice, and homogenized with RIPA lysis buffer containing 50 mM Tris-HCl, 100 mM NaCl, 1% Triton X-100, 5 mM EDTA, and 1:100 PMSF, and then centrifuged at 12,000 × g for 20 min. The supernatant was collected for the analysis of soluble proteins. In some experiments, the pellets were further incubated with 8% SDS buffer at 37 °C and then ultrasound for 60 times to reach a complete resuspension for the analysis of insoluble tau. Protein concentration was measured through BCA assays (Thermo Fisher). Equal amount of protein from each sample were separated in SDS-PAGE gels, and then transferred onto nitrocellulose or 0.22 μm polyvinylidene fluoride membranes (Merck Millipore). […] Blots were visualized using ECL luminol reagent (P0018FS, Beyotime), and quantified using ImageJ software.

For data set [3], the system named is tau. In words: Hippocampal phospho-tau and total tau in 3×Tg AD mice. The class given is in vivo, mouse. Particulars: 9-month 3×Tg AD mice, 5 mM, 1 μL. As to the method:
Mice weighting 20–30 g were anesthetized with 1% pentobarbital sodium (35 mg/kg), and fixed in a stereotaxic instrument (RWD). The scalp was sterilized with iodophors and 75% ethanol, and incised along the skull midline. Holes were drilled. Adeno-associated virus or DEPTAC was injected into the dorsal DG (posterior 1.9 mm, lateral ±1.1 mm from the bregma, ventral −2.0 from the skull) or lateral ventricle (posterior 0.22 mm, lateral ±1.0 mm from the bregma, ventral −2.5 from the skull), respectively, using an automatic microinjection system (World Precision Instruments, USA) at a rate of 0.05 μL/min. The needle syringe was left in place for 5 min before withdrawal. The skin was sutured and sterilized with iodophors. Mice were placed on thermos tank for analepsia.
(§3) For 2-month male C57BL/6 mice, 10 mM FITC-labeled or unlabeled-DEPTAC were directly injected through the tail vein or lateral ventricle for the evaluation of BBB-penetrability. For 9-month 3×Tg AD mice or Tau368 (20–30 g body weight), unlabeled-DEPTAC (5 mM, 1 μL for each time) was delivered for once into the lateral ventricle through direct stereotaxic injection, or repeatedly administrated through guiding cannulas (RWD, Shenzhen, China) implanted into the lateral ventricle once every 3 days for a consecutive month to test its dephosphorylation efficiency. Mice were restricted in a custom designed device and stayed awake during drug administration, and sacrificed at 24 h post the single or last DEPTAC administration.
as §2

Data set [4] has as its system tau aggregation. In words: Thioflavin T staining of tau aggregation in the DG of Tau368 mice. Particulars: DEPTAC for a consecutive month after stopping dox; **p < 0.01, n = 4–5 mice. The class given is in vivo, mouse. As to the method:
as §3
Free-floating brain sections were washed with Tris-buffered saline (TBS) for 3 × 5 min, and then incubated with 0.3% Thioflavin T (Sigma) dissolved in 50% ethanol at room temperature for 10 min. The sections were then decolorized in 50% ethanol for 3 × 5 min, washed in TBS, and subsequently co-stained with DAPI for 10 min.

Data set [5] concerns Tau368 mice. In words: Novel-object recognition test. The class given is in vivo, mouse. The procedure: Novel-object recognition tests were performed one day after the object-place recognition. A similar protocol was used except that object B was replaced by a novel object (object C) in the test phase, and mice preference for the novel object was measured.
Setting [6] is: intracerebroventricular, once every 3 days for a consecutive month, *p < 0.05, n = 4.

“(1) YQQYQDATADEQG, originates from the porcine β-tubulin 422–434 for recognizing and binding tau proteins.[5],[6] (2) GSGS, a linker for increasing the flexibility of the peptide.[15] (3) KKVAVVRTPPKSP, for recruiting PP2A-Bα,[16] and (4) RRRRRRRR [DEPTAC, DEPhosphorylation TArgeting Chimera; 38 amino acid residues, C185H314N72O56]”: the “cytotoxicity (CCK8)” value in data set [1] is “No cytotoxicity”. Besides, the “effectiveness in dephosphorylating and reducing tau in hTau-expressed HEK293 cells” value in data set [2] is on record as “relatively limited effectiveness”. Moreover, in data set [3] (setting [6]), the “hippocampal phospho-tau, repeated delivery” value is on record as “significantly reduced” and the “hippocampal total tau, repeated delivery” value was “significantly reduced”. Also, in data set [3] (once, n = 4), the “hippocampal phospho-tau, delivered for once” value is given as “tended to decrease; also recorded: relatively limited” and the “hippocampal total tau, delivered for once” value is listed as “tended to decrease; also recorded: relatively limited”. The “thioflavin T (ThT)-stained tau aggregation in the DG” value in data set [4] is on record as “ameliorated”. Also, the “novel-object recognition in control mice” value in data set [5] (Tau368 mice treated with NW) was “only limitedly affected”. The novel-object recognition impairment result in data set [5] (dox-treated Tau368 mice, 1-month DEPTAC after stopping dox, *p < 0.05, n = 10–15 mice) is recorded as “remarkably ameliorated; also recorded: rescued”.
